Laboratory results published in publication PMC8708704, “Discovery of New Chemical Tools against Leishmania amazonensis via the MMV Pathogen Box” (Pharmaceuticals, 2021).
Where two headings read alike, the source gives them in different places.

How the values were obtained:
[1] = tested on: Leishmania amazonensis promastigotes; assay: Leishmanicidal activity against promastigotes (alamarBlue assay; screening at 10 µM and IC50); assay type: cell-based; conditions: for IC50 / inhibition at 10 µM: 72 h; for IC50: alamarBlue, read-out: Leishmania amazonensis Promastigotes IC50; for inhibition at 10 µM: first screening, read-out: % of inhibition at 10 µM (against L. amazonensis promastigotes); for Selectivity Index (CC50/IC50), promastigotes: macrophage CC50 / promastigote IC50
Description: For the experiments, promastigotes of Leishmania amazonensis strain (MHOM/BR/77/LTB0016) were used; they were maintained in RPMI 1640 medium (Gibco, Massachusetts, USA) at 26 °C. […] Subsequently, the plates were analyzed on an EnSpire multimode plate reader (PerkinElmer, MA, USA) to measure their fluorescence after 72 h. […] To this end, serial dilutions were performed in 96 well plates, and incubated with the parasites for 72 h after adding alamarBlue®. Next, the plates were analyzed on the EnSpire plate reader and the IC50 values were calculated by using SigmaPlot 14.0 (Systat Software Inc., Chicago, IL, USA). Each concentration was tested in duplicate and in three independent experiments for all the compounds.

[2] = tested on: Leishmania amazonensis intracellular amastigote; assay: Intracellular amastigote activity (parasite rescue and transformation assay); assay type: cell-based; conditions: for IC50: Leishmania amazonensis, Macrophage, 24 h treatment of infected macrophages, rescue 72 h, read-out: Leishmania amazonensis Intracellular Amastigote IC50; for Selectivity Index (CC50/IC50), intracellular amastigote: macrophage CC50 / amastigote IC50
Description: The intracellular amastigote activity was measured by parasite rescue and transformation assay, also performed according to Jain et al. […] The macrophages were placed in a 96 well plate at a density of 2 × 10^5/mL in DMEM and incubated for 5 h. […] After the incubation, the excess promastigotes were washed off and serial dilutions of the compounds were added. After 24 h of incubation, we removed the medium and added 30 μL of Schneider medium with 0.05% SDS to break the macrophages. The plate was shaken for 30 s and a further 180 μL of medium was added to each well. The plates were then incubated at 26 °C for 72 h for the transformation of the rescued amastigote into promastigotes. AlamarBlue® was added and the plates were measured and analyzed as discussed above.

[3] = tested on: L. amazonensis promastigotes; assay: Reactive oxygen species detection (CellROX Deep Red); assay type: cell-based, Leishmania amazonensis; conditions: IC90 of the compounds, 24 h
Description: After 30 min in darkness, the cells were observed under a fluorescent inverted microscope EVOS FL (Life Technologies, Thermo Fisher Scientific, Waltham, MA, USA). This staining was performed three times in independent tests. A positive control was performed as the internal control and corresponded to cells in which ROS production was achieved through the incubation of parasites with 600 µM hydrogen peroxide 30 min before detection.

CYP2C9 = tested on: CYP2C9; design: method as in mmv.org; conditions: human cytochrome; ref mmv.org; cited from earlier work
CYP2D6 = tested on: CYP2D6; design: method as in mmv.org; conditions: human cytochrome; ref mmv.org; cited from earlier work
[4] = design: method as in mmv.org; conditions: ref mmv.org; cited from earlier work
[5] = tested on: L. donovani promastigotes; design: method as in PMID 32280200; conditions: cited from earlier work
[6] = tested on: Trypanosoma brucei brucei trypomastigotes; design: method as in PMID 28674055, PMID 19091562; conditions: cited from earlier work
[7] = tested on: T. evansi trypomastigotes; design: method as in PMID 32112721; conditions: cited from earlier work
NADPH oxidase 4 = tested on: NADPH oxidase 4; design: method as in PMID 20731357; conditions: cited from earlier work
[8] = Cytotoxic activity against murine macrophages (alamarBlue); conditions: mouse, J774A.1 murine macrophages
[9] = tested on: Leishmania amazonensis promastigotes; assay: ATP levels (CellTiter-Glo); assay type: cell-based; conditions: IC90 of the compounds, 24 h
Description: To detect alterations due to the different treatments on the cellular ATP levels, CellTiter-Glo (Promega) was utilized. […] Finally, luminescence was measured on the EnSpire spectrophotometer (Perkin Elmer). The experiment was performed at least three times in duplicate on different days.

[10] = tested on: L. amazonensis promastigotes; assay: Phosphatidylserine externalization (annexin V / propidium iodide, Tali); assay type: cell-based, Leishmania amazonensis; conditions: IC90, 24 h (Figure 4 legend: 48 h)
Excerpt: To measure the level of population that experiments phosphatidylserine externalization from the inner to the outer part of the cytoplasmic membrane, an Apoptosis kit for Tali (Invitrogen, Thermo Fisher Scientific, Waltham, MA, USA) was utilized. The kit employs annexin-v, which binds to the external phosphatidylserine, and propidium iodide, that penetrates dead cells, to classify the population of the cells as: alive ([…]), dead (propidium stained), and apoptotic (annexin stained). […] A minimum of three independent experiments were performed for this assay. The cells were then quantified by the image-based cytometer Tali® (Life Technologies, Thermo Fisher Scientific, Waltham, MA, USA).

[11] = tested on: intracellular amastigotes of L. donovani; conditions: cited from earlier work
thioredoxin reductase = tested on: thioredoxin reductase; design: method as in PMID 18532880; conditions: cited from earlier work
promastigotes = conditions: read-out: IC50 against promastigotes, cited from earlier work
[12] = tested on: intracellular amastigotes; conditions: read-out: IC50 against intracellular amastigotes, cited from earlier work
[13] = tested on: T. cruzi intracellular amastigotes; design: method as in PMID 19091562; conditions: cited from earlier work
Plasmodium falciparum = tested on: Plasmodium falciparum; design: method as in PMID 19091562; conditions: cited from earlier work
[14] = tested on: methionine aminopeptidase; design: method as in PMID 28674055; conditions: cited from earlier work

SMILES | IC50 ([1]; Leishmania amazonensis) | inhibition at 10 µM ([1]; Leishmania amazonensis) | Selectivity Index (CC50/IC50), promastigotes [1] | IC50 [2] | Selectivity Index (CC50/IC50), intracellular amastigote [2] | ROS accumulation (CellROX Deep Red fluorescence) [3] | IC50 (CYP2C9) | IC50 (CYP2D6) | Glutathione Reactivity [4] | Activity against Trypanosoma brucei brucei trypomastigotes [6] | CC50 at 24 h [8] | ATP levels [9] | Dead population (propidium iodide stained) [10] | Translocation of phosphatidylserine, part of the parasite population [10] | IC50 [1] | other results
O=C(Nc1ccc(N2CCNCC2)cc1)c1ccn2ncc(-c3cccc(Cl)c3)c2n1 [Compound 9, 3-(3-Chlorophenyl)-N-(4-piperazin-1-ylphenyl)pyrazolo [1,5-a]pyrimidine-5-carboxamide] | 0.77 ± 0.01 µM | 91% | 9.35 | 6.9 ± 1.79 µM | 1.05 | accumulation of ROS | > 20 µM | > 20 µM | No GSH adduct | activity | 7.22 ± 2.36 µM |  |  |  |  | Activity against L. donovani promastigotes [5]: activity; Activity against T. evansi trypomastigotes [7]: active; Inhibition of NADPH oxidase 4 (NADPH oxidase 4): inhibits
C[C@H](c1ccc2c(c1)CCCC2)N(C)c1ncc2c(N)nc(N)nc2n1 [Compound 5, 2-N-Methyl-2-N-[(1R)-1-(5,6,7,8-tetrahydronaphthalen-2-yl)ethyl]pyrimido [4,5-d]pyrimidine-2,5,7-triamine] | 0.59 ± 0.08 µM | 90% | >17.06 | 1.25 ± 0.28 µM | >8.00 | too damaged to contain the dye | > 20 µM | > 20 µM | Medium | activity | > 10 µM | strong decrease | higher percentage | higher than 50% |  | Anti-leishmanial activity (L. donovani) ([11]; stage not clearly stated for this compound): activity
COc1cccc(-n2nnnc2S(=O)(=O)Cc2ccccc2)c1 [Compound 3, 5-(Benzylsulfonyl)-1-(3-methoxyphenyl)-1H-tetrazole] | < 2 µM | 91% |  | 4.78 ± 1.2 µM | 1.68 |  | > 20 µM | 15 µM | Medium |  | 8.02 ± 0.93 µM | strong decrease | higher percentage | higher than 50% | 1.33 ± 0.12 µM | Interference with thioredoxin reductase (thioredoxin reductase): interferes
CN1CCC(NCc2cccc(-c3ccc(S(=O)(=O)NCc4ccccc4)cc3)c2)CC1 [Compound 7, N-Benzyl-4-[3-[[(1-methylpiperidin-4-yl)amino]methyl]phenyl]benzenesulfonamide] | < 2 µM | 91% | >5.44 | 2.5 ± 0.27 µM | >4.00 | accumulation of ROS | > 20 µM | > 20 µM | No GSH adduct | activity | > 10 µM |  |  |  | 1.84 ± 0.14 µM | 
CCCCCCCCCCCCCCCCOP(=O)([O-])OCC[N+](C)(C)C [Miltefosine] |  |  | 11.14 |  | 23.14 |  |  |  |  |  | 72.2 ± 3.06 µM |  |  |  |  | IC50 (promastigotes; ref Alonso et al. [15]): 7.8 µM; IC50 (promastigotes; ref Trinconi et al. [16]): 16.8 µM; IC50 ([12]; ref Alonso et al. [15]): 1.8 µM; IC50 ([12]; ref Trinconi et al. [16]): 2.6 µM
c1ccc(-c2nc(NC3CCCCC3)cc(C3CC3)n2)nc1 [Compound 10, N-Cyclohexyl-6-cyclopropyl-2-pyridin-2-ylpyrimidin-4-amine] | < 2 µM | 90% | >5.40 | 1.33 ± 0.36 µM | >7.52 | accumulation of ROS | > 20 µM | > 20 µM | No GSH adduct | activity | > 10 µM | less pronounced decrease |  |  | 1.85 ± 0.39 µM | Activity against intracellular amastigotes of L. donovani [11]: activity; Activity against T. cruzi intracellular amastigotes [13]: active; Activity against Plasmodium falciparum (Plasmodium falciparum): active; Inhibition of methionine aminopeptidase [14]: inhibitor
